Like-named read-outs stand apart in the source and are kept apart here.

Data set [1] concerns SW480. Description: MTS cytotoxicity assay, SW480 colorectal cancer cells. The format is cell-based, human. Particulars: for IC50: MTS, 24 h incubation, n = 3, >100 = no detectable effect at highest concentration, * = IC50 could not be determined (high variability or no consistent dose-response), read-out: Cytotoxicity IC50 ± SD, SW480. As to the method:
(§1) The human colorectal cancer cell lines SW620, SW480 were obtained from the American Type Culture Collection (ATCC). Both cell lines were cultured in Dulbecco’s Modified Eagle Medium (DMEM) (Capricorn Scientific GmbH, Manassas, USA), which was supplemented with 10% fetal bovine serum (FBS) and 50 µg/mL of gentamicin. Cells were incubated at 37 °C in a humidified atmosphere containing 5% CO₂. The cultures were passaged approximately every three days upon reaching confluence using a 0.25% trypsin-EDTA solution, at a ratio of approximately 1:3 to 1:4. For the MTS assay, cells were seeded at a density of 10,000 cells per well in 96-well plates. After 24 h, compounds were added at five concentrations ([…]), and cells were incubated for an additional 24 h. Cytotoxicity was assessed using the CellTiter 96® AQueous One Solution Cell Proliferation Assay (Promega), following the manufacturer’s instructions. Absorbance was measured at 490 nm using a microplate reader.
(§2) The IC₅₀ values were determined relative to the untreated control cells (without test compounds). All experiments were performed in triplicate (n = 3). Compounds for which IC₅₀ values could not be reliably determined were excluded from quantitative analysis. […] Such compounds are reported as ‘>100µM’ or ‘>100µM*’, respectively, in the results.
For orientation: Tetrazolium dyes change colour on reduction, which living cells bring about.

Data set [2] has as its system SW620. Description: MTS cytotoxicity assay, SW620 colorectal cancer cells. The format is cell-based, human. Conditions: for IC50: Homo sapiens, SW-620, MTS, 24 h incubation, n = 3, >100 = no detectable effect at highest concentration, * = IC50 could not be determined (high variability or no consistent dose-response), read-out: Cytotoxicity IC50 ± SD, SW620. As to the method: as §1, §2

Data set [3] can be described thus: Lipophilicity by gradient RP-HPLC (C18, pH 7.4): CHI, chrom logD, PFI. The class given is physicochemical. Also on record: key to PFI (Property Forecast Index): PFI = Chrom logD7.4 + number of aromatic rings. Conditions: for chromatographic logD: C18 Hypersil GOLD reversed-phase HPLC column, pH 7.4, C18 column; for chromatographic logD / chrom logD (RP-HPLC): pH 7.4, Chrom logD = 0.0525 × CHI − 1.467; for chrom logD (RP-HPLC): C18 column; for CHI C18: C18 at pH 7.4; for PFI (Property Forecast Index): PFI = Chrom logD7.4 + #Ar, threshold 7. From the text: (§3) All chromatographic experiments adhered to the protocols established by Valko and colleagues, which were implemented in our laboratory. Essentially, biochromatography facilitated the assessment of lipophilicity and phospholipid affinity, represented as Chromatographic Hydrophobicity Index (CHI) values, through a gradient elution experiment, comparing results with model substances. The Prominence-1 LC-2030C 3D HPLC system, operated via LabSolution software (v6.81, Kyoto, Japan), was utilized for all chromatographic analyses. Throughout the research, distinct chromatographic columns were employed: IAM.PC.DD2 (10 × 4.6 mm × 10.0 µm with a guard column; Regis Technologies; USA) and C18 Hypersil GOLD^TM (100 mm × 4.6 mm; 5.0 µm with a guard column; Thermo Scientific, Waltham, MA, USA). Each column was paired with guard columns featuring the same stationary phases as the main column. Mobile phase A consisted of a water solution of 50 mM ammonium acetate (VWR International, Leuven, Belgium), adjusted to physiological pH 7.4 using concentrated ammonia solution (Avantor Performance Materials Poland S.A., Gliwice, Poland). The mobile phase was prepared with ultrapure water from a Milli-Q water purification system (Merck Millipore, Darmstadt, Germany), achieving a resistivity of 18.2 MΩ. For phospholipid binding assessments, mobile phase B was HPLC grade acetonitrile (Chempur, Piekary Śląskie, Poland), with a linear gradient from 0 to 85% B over 5.25 min, then maintained at 85% ACN for 0.5 min. The mobile phase was delivered at a flow rate of 1.5 mL/min, with the IAM.PC.DD2 column temperature held steady at 30 °C. For lipophilicity evaluations, the solvents and flow rate mirrored those used in IAM chromatography. The C18 Hypersil GOLD^TM column was kept at 40 °C. Similarly, a linear gradient was applied from 0 to 5.25 min, but, in this instance, it ranged from 2 to 98% ACN, with the maximum phase B concentration sustained for 2.5 min. Dimethyl sulfoxide (Avantor Performance Materials Poland S.A., Poland) was employed to dissolve the target solutes, forming a solution with a concentration of 200 µg/mL. Detection occurred in the UV region at a wavelength of 190–300 nm. The injection volume was 5 μL, and each compound was analyzed in duplicate, with retention time variation below 0.5%. Retention times for the studied molecules and reference standards are detailed in the Supplementary Material, Tables S1 and S2.
Experimentally determined CHI values were converted to chrom logD using the following equation [53]:Chrom logD = 0.0525 × CHI − 1.467(1)
In addition, the Property Forecast Index (PFI), the sum of the number of aromatic rings(#Ar), and a lipophilicity measure are used to reflect the principle of simultaneous minimization of lipophilicity and aromaticity, which supports the selection of oral clinical candidates in GKS [47].PFI = Chrom logD7.4 + #Ar(2)

Data set [4] in a line: Phospholipid affinity by IAM-HPLC (IAM.PC.DD2 column). The format is physicochemical. Conditions: pH 7.4, phospholipidosis threshold >50.
Text: as §3

For `O=c1[nH]cc(F)c(=O)[nH]1` [5-fluorouracil, reference compound], the IC50 (usually the concentration that gives 50% inhibition) in data set [1] (Homo sapiens) came to 15.5 ± 7.83 µM; in data set [2], 21.7 ± 2.75 µM.

As to `Cl.Clc1ccccc1Nc1nc(NCCc2ccccc2)nc(N2CCOCC2)n1` [Compound 3, N^2-(2-chlorophenyl)-6-morpholino-N^4-phenethyl-1,3,5-triazine-2,4-diamine hydrochloride], the “Cytotoxic activity in words, SW480” value in data set [1] is recorded as “limited cytotoxic potential”. In addition, the IC50 in data set [1] (Homo sapiens) is > 100 µM. Also, in data set [2], the “Cytotoxic activity in words, SW620” value is listed as “limited cytotoxic potential” and the IC50 was > 100 µM. Further, in data set [3], the chromatographic logD (usually lipophilicity estimated from chromatographic retention) was 3.95 and the “chrom logD (RP-HPLC)” value worked out at 3.947. For the same molecule, the “CHI IAM (IAM-HPLC)” value in data set [4] worked out at 55.97.

As to `Cl.Clc1ccccc1Nc1nc(Nc2ccccc2)nc(N2CCOCC2)n1` [Compound 4, N^2-(2-chlorophenyl)-6-morpholino-N^4-phenyl-1,3,5-triazine-2,4-diamine hydrochloride], the IC50 in data set [1] (Homo sapiens) was > 100 µM. The IC50 in data set [2] is 36.1 ± 46.5 µM. For the same molecule, in data set [3], the chromatographic logD amounted to 4.1, the “CHI C18” value was 106, the “chrom logD (RP-HPLC)” value was determined as 4.098 and the “PFI (Property Forecast Index)” value is 7.10. Also, in data set [4], the “CHI IAM (IAM-HPLC)” value was 46.34.

For `Cl.Clc1ccccc1Nc1nc(NCc2ccccc2)nc(N2CCOCC2)n1` [Compound 5, N^2-benzyl-N^4-(2-chlorophenyl)-6-morpholino-1,3,5-triazine-2,4-diamine hydrochloride], the half-inhibitory concentration (IC50) in data set [1] (Homo sapiens) was 43.1 µM. Further, the IC50 in data set [1] was 43.4 ± 12.2 µM. In data set [2], the IC50 is 32.8 ± 23.4 µM. Moreover, in data set [3], the chromatographic logD amounted to 3.95, the “CHI C18” value turned out to be 103.1, the “chrom logD (RP-HPLC)” value is 3.947 and the “PFI (Property Forecast Index)” value came out at 6.95. Besides, in data set [4], the “CHI IAM (IAM-HPLC)” value stood at 46.45.

Regarding `Cl.Clc1ccccc1Nc1nc(NCCCc2ccccc2)nc(N2CCOCC2)n1` [Compound 6, N^2-(2-chlorophenyl)-6-morpholino-N^4-(3-phenylpropyl)-1,3,5-triazine-2,4-diamine hydrochloride], the “Cytotoxic activity in words, SW480” value in data set [1] was “limited cytotoxic potential”. Besides, in data set [1] (Homo sapiens), the IC50 is > 100 µM. Besides, in data set [2], the “Cytotoxic activity in words, SW620” value is “limited cytotoxic potential” and the IC50 was > 100 µM. For the same molecule, in data set [3], the chromatographic logD is 4.71, the “CHI C18” value turned out to be 117.6, the “chrom logD (RP-HPLC)” value was determined as 4.706 and the “PFI (Property Forecast Index)” value came to 7.71. In addition, in data set [4], the “CHI IAM (IAM-HPLC)” value is reported as 51.63.

With `Cl.Fc1ccc(N2CCN(CCNc3nc(Nc4ccccc4Cl)nc(N4CCOCC4)n3)CC2)cc1` [Compound 7, N^2-(2-chlorophenyl)-N^4-(2-(4-(4-fluorophenyl)piperazin-1-yl)ethyl)-6-morpholino-1,3,5-triazine-2,4-diamine hydrochloride], in data set [1], the “Cytotoxic activity in words, SW480” value is “limited cytotoxic potential”. In data set [1] (Homo sapiens), the IC50 is > 100 µM. Further, the “Cytotoxic activity in words, SW620” value in data set [2] is listed as “limited cytotoxic potential”. In data set [3], the chromatographic logD stood at 4.44, the “CHI C18” value is on record as 112.6, the “chrom logD (RP-HPLC)” value came to 4.443 and the “PFI (Property Forecast Index)” value is recorded as 7.44. Besides, in data set [4], the “CHI IAM (IAM-HPLC)” value came out at 49.59.

Turning to `Cl.Clc1ccccc1Nc1nc(N2CCOCC2)nc(N2CCN(c3ccccc3)CC2)n1` [Compound 8, N-(2-chlorophenyl)-4-morpholino-6-(4-phenylpiperazin-1-yl)-1,3,5-triazin-2-amine hydrochloride], the IC50 in data set [1] (Homo sapiens) came out at 20.6 ± 24.9 µM. Moreover, in data set [3], the chromatographic logD came to 4.15, the “CHI C18” value was 107, the “chrom logD (RP-HPLC)” value was determined as 4.148 and the “PFI (Property Forecast Index)” value is on record as 7.15. For the same molecule, in data set [4], the “CHI IAM (IAM-HPLC)” value worked out at 47.79.

With `Cl.Clc1ccccc1Nc1nc(N2CCOCC2)nc(N2CCN(c3nsc4ccccc34)CC2)n1` [Compound 9, 4-(4-(benzo[d]isothiazol-3-yl)piperazin-1-yl)-N-(2-chlorophenyl)-6-morpholino-1,3,5-triazin-2-amine hydrochloride], the “Cytotoxic activity in words, SW480” value in data set [1] is “inactive”. The IC50 in data set [1] (Homo sapiens) is > 100 µM. In data set [2], the “Cytotoxic activity in words, SW620” value is reported as “some activity” and the IC50 worked out at 22.1 ± 17.3 µM. Moreover, in data set [3], the chromatographic logD was determined as 4.23, the “CHI C18” value is reported as 108.4, the “chrom logD (RP-HPLC)” value is on record as 4.226 and the “PFI (Property Forecast Index)” value came out at 7.23. Besides, in data set [4], the “CHI IAM (IAM-HPLC)” value is recorded as 48.02.

Regarding `Cl.Clc1ccccc1Nc1nc(NCCNc2ccccc2)nc(N2CCOCC2)n1` [Compound 10, N^2-(2-chlorophenyl)-6-morpholino-N^4-(2-(phenylamino)ethyl)-1,3,5-triazine-2,4-diamine hydrochloride], the “Cytotoxic activity in words, SW480” value in data set [1] is reported as “limited cytotoxic potential”. Further, the IC50 in data set [1] (Homo sapiens) was > 100 µM. Further, the “Cytotoxic activity in words, SW620” value in data set [2] is on record as “limited cytotoxic potential”. Besides, in data set [3], the chromatographic logD amounted to 3.94, the “CHI C18” value was determined as 102.9, the “chrom logD (RP-HPLC)” value came out at 3.936 and the “PFI (Property Forecast Index)” value amounted to 6.94. In addition, the “CHI IAM (IAM-HPLC)” value in data set [4] turned out to be 44.55.

Consider `Cl.Clc1ccccc1Nc1nc(NCCOc2ccccc2)nc(N2CCOCC2)n1` [Compound 11, N^2-(2-chlorophenyl)-6-morpholino-N^4-(2-phenoxyethyl)-1,3,5-triazine-2,4-diamine hydrochloride], for which the IC50 in data set [2] was determined as 5.85 ± 14.3 µM. Moreover, in data set [3], the chromatographic logD was found to be 4.01, the “CHI C18” value turned out to be 104.4, the “chrom logD (RP-HPLC)” value is reported as 4.012 and the “PFI (Property Forecast Index)” value came out at 7.01. Moreover, the “CHI IAM (IAM-HPLC)” value in data set [4] amounted to 45.92.

The values above are taken from paper PMC12157728, “Green and Efficient Synthetic Protocol for 1,3,5-Triazine Derivatives with Anticancer Potential Against Colorectal Cancer” (Molecules, 2025).
